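Method: 48-hour compound exposure of cells in 96-well plates, five concentrations, linear interpolation of endpoints. At the GI50, growth is halved. TGI: concentration producing complete growth inhibition.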
Columns and labels:
Assay in all cases: inhibition of tumour cell growth, NCI panel, 48 h
[1] = system: MOLT-4 leukemia
[2] = system: NCI-H226 lung
[3] = system: NCI-H23 lung
[4] = system: NCI-H460 lung
[5] = system: NCI-H522 lung
[6] = system: NCI/ADR-RES ovarian
[7] = system: OVCAR-3 ovarian
[8] = system: OVCAR-4 ovarian
[9] = system: OVCAR-5 ovarian
[10] = system: OVCAR-8 ovarian
[11] = system: PC-3 prostate
[12] = system: RPMI-8226 leukemia
[13] = system: RXF 393 renal
[14] = system: SF-268 CNS
[15] = system: SF-295 CNS
[16] = system: SF-539 CNS
[17] = system: SK-MEL-2 melanoma
[18] = system: SK-MEL-5 melanoma
[19] = system: SK-OV-3 ovarian
[20] = system: SN12C renal
[21] = system: SNB-19 CNS
[22] = system: SNB-75 CNS
[23] = system: SR leukemia
[24] = system: SW-620 colon
[25] = system: T-47D breast
[26] = system: TK-10 renal
[27] = system: U251 CNS
[28] = system: UO-31 renal

`CO[C@H](C(=O)[C@@H](O)[C@@H](C)O)[C@@H]1Cc2cc3cc(O[C@H]4C[C@@H](O[C@H]5C[C@@H](O)[C@H](O)C(C)O5)[C@H](O)C(C)(O)O4)cc(O)c3c(O)c2C(=O)[C@H]1O[C@H]1C[C@@H](O[C@H]2C[C@@H](O[C@H]3C[C@@H](OC)[C@H](O)C(C)O3)[C@@H](O)C(C)O2)[C@H](O)C(C)O1` (stereo not given in full) showed a TGI [1] greater than 16800 nM, a GI50 [2] of 796 nM and a TGI [2] of 5340 nM. For the same compound, the GI50 [3] was 831 nM, the TGI [3] was greater than 16800 nM and the GI50 [4] was 469 nM. For the same compound, the TGI [4] was greater than 16800 nM, the GI50 [5] was 354 nM and the TGI [5] was 14800 nM. It also gave a GI50 [6] greater than 16800 nM, a TGI [6] greater than 16800 nM and a GI50 [7] of 956 nM. For the same compound, the TGI [7] was greater than 16800 nM, the GI50 [8] was 1350 nM and the TGI [8] was greater than 16800 nM. The GI50 [9] was 2950 nM, the TGI [9] was greater than 16800 nM and the GI50 [10] was 1550 nM. For the same compound, the TGI [10] was greater than 16800 nM, the GI50 [11] was 1420 nM and the TGI [11] was greater than 16800 nM. It also gave a GI50 [12] of 833 nM, a TGI [12] greater than 16800 nM and a GI50 [13] of 1270 nM. For the same compound, the TGI [13] was 7940 nM, the GI50 [14] was 726 nM and the TGI [14] was greater than 16800 nM. The GI50 [15] was 666 nM, the TGI [15] was greater than 16800 nM and the GI50 [16] was 658 nM. It also gave a TGI [16] of 12200 nM, a GI50 [17] of 704 nM and a TGI [17] of 5180 nM. It also gave a GI50 [18] of 509 nM, a TGI [18] of 2970 nM and a GI50 [19] of 671 nM. It also gave a TGI [19] greater than 16800 nM, a GI50 [20] of 868 nM and a TGI [20] greater than 16800 nM. For the same compound, the GI50 [21] was 761 nM, the TGI [21] was greater than 16800 nM and the GI50 [22] was 63 nM. For the same compound, the TGI [22] was 6840 nM, the GI50 [23] was 250 nM and the TGI [23] was greater than 16800 nM. For the same compound, the GI50 [24] was 1310 nM, the TGI [24] was greater than 16800 nM and the GI50 [25] was 447 nM. The TGI [25] was greater than 16800 nM, the GI50 [26] was 2800 nM and the TGI [26] was greater than 16800 nM. The GI50 [27] was 387 nM, the TGI [27] was greater than 16800 nM and the GI50 [28] was 4060 nM. The TGI [28] was greater than 16800 nM.
